Data set [1] concerns CYP2D6 versus CYP2A6. Kind of data set: Ratio of inhibition of human cytochrome P-450 2D6 to 2A6 was determined; Expressed as IC50(CYP2D6)/IC50(CYP2A6).
The target in data set [2] is T1, Cytochrome P450 2B6 (Homo sapiens, UniProt P20813).
T1 sequence (P20813 whole entry): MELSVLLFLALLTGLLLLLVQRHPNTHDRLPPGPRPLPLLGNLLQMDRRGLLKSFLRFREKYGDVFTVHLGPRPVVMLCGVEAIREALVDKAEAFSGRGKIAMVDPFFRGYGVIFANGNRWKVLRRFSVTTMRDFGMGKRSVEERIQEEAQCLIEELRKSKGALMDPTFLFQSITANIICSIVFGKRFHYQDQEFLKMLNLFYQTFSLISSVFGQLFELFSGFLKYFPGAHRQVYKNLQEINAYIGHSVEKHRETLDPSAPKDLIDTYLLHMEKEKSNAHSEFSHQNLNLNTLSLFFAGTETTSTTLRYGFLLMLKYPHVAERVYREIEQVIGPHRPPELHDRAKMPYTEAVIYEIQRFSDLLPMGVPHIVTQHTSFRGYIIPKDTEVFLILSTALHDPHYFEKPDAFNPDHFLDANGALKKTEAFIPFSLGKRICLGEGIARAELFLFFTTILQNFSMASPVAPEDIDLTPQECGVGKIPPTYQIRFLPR
Kind of data set: Inhibitory concentration value against human cytochrome P-450 2B6.

Data set [3] deals with Cytochrome P450 2D6 (Homo sapiens, UniProt P10635). As to the kind of experiment: Inhibitory concentration value against human cytochrome P-450 2D6.
Data set [4] has as its target Cytochrome P450 2C19 (Homo sapiens, UniProt P33261). Kind of data set: Inhibitory concentration value against human cytochrome P-450 2C19.
In data set [5] the target is Cytochrome P450 2E1 (Homo sapiens, UniProt P05181). Kind of data set: Inhibitory concentration value against human cytochrome P-450 2E1.
Data set [6] concerns the target Cytochrome P450 2C9 (Homo sapiens, UniProt P11712). Kind of data set: Inhibitory concentration against human cytochrome P-450 2C9.
For data set [7], the target named is T2, Cytochrome P450 2A6 (Homo sapiens, UniProt P11509).
T2 sequence (P11509 whole entry): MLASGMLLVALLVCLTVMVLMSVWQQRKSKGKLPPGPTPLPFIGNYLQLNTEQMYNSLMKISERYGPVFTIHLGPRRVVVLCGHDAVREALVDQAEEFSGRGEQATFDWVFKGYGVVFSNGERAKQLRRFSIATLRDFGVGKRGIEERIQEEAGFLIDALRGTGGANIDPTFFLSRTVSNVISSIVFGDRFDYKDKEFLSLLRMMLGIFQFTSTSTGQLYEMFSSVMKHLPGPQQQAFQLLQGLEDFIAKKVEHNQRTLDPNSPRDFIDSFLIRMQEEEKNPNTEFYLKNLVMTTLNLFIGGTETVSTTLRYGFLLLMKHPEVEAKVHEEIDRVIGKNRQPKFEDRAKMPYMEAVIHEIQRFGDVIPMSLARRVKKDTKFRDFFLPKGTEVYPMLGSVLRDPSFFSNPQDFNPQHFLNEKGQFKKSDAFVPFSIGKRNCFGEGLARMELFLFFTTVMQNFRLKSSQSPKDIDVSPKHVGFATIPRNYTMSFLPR
As to the kind of experiment: Effect on coumarin 7-hydroxylation by human Cytochrome P-450 2A6.

Data set [8] concerns CYP2C9 versus CYP2A6. As to the kind of experiment: Ratio of inhibition of human cytochrome P-450 2C9 to 2A6 was determined; Expressed as IC50(CYP2C9)/IC50(CYP2A6).
Data set [9] has as its system CYP2C19 versus CYP2A6. Kind of data set: Ratio of inhibition of human cytochrome P-450 2C19 to 2A6 was determined; Expressed as IC50(CYP2C19)/IC50(CYP2A6).
Data set [10] addresses Cytochrome P450 3A4 (Homo sapiens, UniProt P08684). Kind of data set: Inhibitory concentration value against human cytochrome P-450 3A4.
The target in data set [11] is T2, Cytochrome P450 2A6. Kind of data set: Inhibitory concentration value against human cytochrome P-450 2A6.
Data set [12] deals with CYP3A4 versus CYP2A6. Kind of data set: Ratio of inhibition of human cytochrome P-450 3A4 to 2A6 was determined; Expressed as IC50(CYP3A4)/IC50(CYP2A6).

This passage reports selectivity ratio, IC50 and Ki results from ChEMBL document CHEMBL1145288, “5-substituted, 6-substituted, and unsubstituted 3-heteroaromatic pyridine analogues of nicotine as selective inhibitors of cytochrome P-450 2A6” (J Med Chem, 2005).

Each structure is given as a SMILES string.

Sequence of Cytochrome P450 3A4 (P08684 whole entry): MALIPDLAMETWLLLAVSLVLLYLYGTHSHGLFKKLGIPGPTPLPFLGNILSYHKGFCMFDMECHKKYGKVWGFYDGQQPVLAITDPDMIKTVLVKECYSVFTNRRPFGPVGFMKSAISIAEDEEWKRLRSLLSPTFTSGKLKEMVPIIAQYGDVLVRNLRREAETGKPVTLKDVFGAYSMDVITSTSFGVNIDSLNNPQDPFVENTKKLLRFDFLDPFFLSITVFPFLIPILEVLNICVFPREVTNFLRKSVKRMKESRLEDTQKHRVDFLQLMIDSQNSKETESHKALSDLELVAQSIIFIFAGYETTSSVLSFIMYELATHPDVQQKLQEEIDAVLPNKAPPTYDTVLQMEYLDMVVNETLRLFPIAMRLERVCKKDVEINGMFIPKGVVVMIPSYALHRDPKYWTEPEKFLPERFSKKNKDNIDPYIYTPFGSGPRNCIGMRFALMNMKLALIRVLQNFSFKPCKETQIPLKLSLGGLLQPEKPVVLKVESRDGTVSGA
Sequence of Cytochrome P450 2C19 (P33261 whole entry): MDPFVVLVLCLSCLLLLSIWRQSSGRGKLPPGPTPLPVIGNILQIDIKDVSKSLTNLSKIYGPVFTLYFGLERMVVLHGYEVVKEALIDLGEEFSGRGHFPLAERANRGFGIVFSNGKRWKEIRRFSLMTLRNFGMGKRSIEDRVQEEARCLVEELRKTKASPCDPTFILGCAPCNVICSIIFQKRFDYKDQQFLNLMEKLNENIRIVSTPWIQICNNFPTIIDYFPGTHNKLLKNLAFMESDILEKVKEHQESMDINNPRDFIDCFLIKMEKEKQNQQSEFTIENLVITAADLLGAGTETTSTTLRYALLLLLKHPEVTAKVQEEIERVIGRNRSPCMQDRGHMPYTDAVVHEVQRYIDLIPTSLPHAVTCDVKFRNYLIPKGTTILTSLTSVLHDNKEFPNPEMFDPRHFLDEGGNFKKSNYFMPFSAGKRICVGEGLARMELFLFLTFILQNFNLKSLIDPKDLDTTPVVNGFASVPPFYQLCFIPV
Sequence of Cytochrome P450 2E1 (P05181 whole entry): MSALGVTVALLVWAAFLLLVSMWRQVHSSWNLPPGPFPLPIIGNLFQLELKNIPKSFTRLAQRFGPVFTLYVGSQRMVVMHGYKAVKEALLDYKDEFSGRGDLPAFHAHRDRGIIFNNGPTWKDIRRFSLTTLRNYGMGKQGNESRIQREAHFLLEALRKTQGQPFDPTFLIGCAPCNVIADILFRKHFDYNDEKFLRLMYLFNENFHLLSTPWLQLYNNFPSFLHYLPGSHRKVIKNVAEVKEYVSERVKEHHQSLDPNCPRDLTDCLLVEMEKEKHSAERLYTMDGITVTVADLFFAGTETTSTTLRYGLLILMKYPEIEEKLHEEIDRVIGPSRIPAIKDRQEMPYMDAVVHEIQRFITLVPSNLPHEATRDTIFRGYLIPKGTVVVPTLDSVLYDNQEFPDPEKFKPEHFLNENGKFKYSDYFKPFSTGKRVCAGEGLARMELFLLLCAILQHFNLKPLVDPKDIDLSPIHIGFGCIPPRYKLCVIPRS
Sequence of Cytochrome P450 2C9 (P11712 whole entry): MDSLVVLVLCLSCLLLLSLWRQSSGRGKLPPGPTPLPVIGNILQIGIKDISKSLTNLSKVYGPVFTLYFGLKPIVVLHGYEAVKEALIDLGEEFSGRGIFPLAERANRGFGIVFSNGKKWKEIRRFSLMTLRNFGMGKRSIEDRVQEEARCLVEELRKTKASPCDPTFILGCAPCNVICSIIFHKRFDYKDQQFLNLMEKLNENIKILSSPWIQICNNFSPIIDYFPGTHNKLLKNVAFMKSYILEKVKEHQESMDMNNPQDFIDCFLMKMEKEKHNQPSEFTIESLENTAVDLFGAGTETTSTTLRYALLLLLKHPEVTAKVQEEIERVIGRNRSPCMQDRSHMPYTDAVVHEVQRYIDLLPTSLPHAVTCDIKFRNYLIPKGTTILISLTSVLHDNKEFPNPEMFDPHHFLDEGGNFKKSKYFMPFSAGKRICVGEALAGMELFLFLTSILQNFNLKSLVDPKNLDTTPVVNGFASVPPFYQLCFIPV
Sequence of Cytochrome P450 2D6 (P10635 whole entry): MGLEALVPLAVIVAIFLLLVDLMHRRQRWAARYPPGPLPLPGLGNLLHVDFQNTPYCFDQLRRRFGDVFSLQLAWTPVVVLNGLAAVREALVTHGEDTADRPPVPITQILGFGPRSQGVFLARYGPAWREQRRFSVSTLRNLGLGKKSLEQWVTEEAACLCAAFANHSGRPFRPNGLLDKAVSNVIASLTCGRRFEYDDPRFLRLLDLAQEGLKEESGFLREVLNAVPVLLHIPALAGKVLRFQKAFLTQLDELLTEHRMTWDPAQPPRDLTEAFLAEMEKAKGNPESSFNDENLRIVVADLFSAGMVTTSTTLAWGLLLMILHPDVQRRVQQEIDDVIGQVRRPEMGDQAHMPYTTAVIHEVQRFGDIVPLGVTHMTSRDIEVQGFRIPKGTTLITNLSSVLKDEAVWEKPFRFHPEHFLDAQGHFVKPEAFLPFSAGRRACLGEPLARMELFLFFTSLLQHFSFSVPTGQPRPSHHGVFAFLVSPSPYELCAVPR

With `Cn1cnc(-c2cccnc2)c1`, in data set [1], the selectivity ratio is 289. The IC50 (in general, the midpoint of a concentration-inhibition curve) in data set [2] came to 146 µM; in [3], 217 µM; in data set [4], 122 µM; in data set [5] it was 4.1 µM; in [6], 79.5 µM. For the same compound, the Ki – broadly, a dissociation constant, usually derived from enzyme kinetics or from competition with a known ligand – in data set [7] was 0.13 µM.

Compound `Cc1nc(-c2cccnc2)c[nH]1` registered a Ki in data set [7] of 6.2 µM. That is a single-digit micromolar value.

`Brc1cncc(-c2ccsc2)c1` gave a Ki in [7] of 4.5 µM.

`Cc1ccnc(-c2cccnc2)c1` came in with a Ki in data set [7] of 5.1 µM.

In the case of `Cc1cncc(-c2cscc2C)c1`, the inhibition constant Ki in data set [7] came out at 0.17 µM.

In [7], `Cc1ccsc1-c1ccc(F)nc1` gave an inhibition constant (Ki) of 0.21 µM.

For `c1cncc(-c2cccnc2)c1`, the IC50 in data set [3], in [4], in [5] and in data set [6] was more than 300 µM in each case.

Regarding `O/N=C/c1ccc(-c2cccnc2)o1`, the IC50 in [2] was 372 µM; in [3] it was more than 400 µM; in data set [4], 118 µM; in data set [5], more than 400 µM; in data set [6] it was 86.2 µM; in [10] it was more than 400 µM. Besides, the selectivity ratio was found to be 1 in data set [8] and 1.4 in [9]. The compound also yielded an inhibition constant (Ki) in data set [7] of 0.71 µM.

With `COc1ccc(-c2cscc2C)cn1`, the Ki in data set [7] was 6.6 µM.

In data set [3], `O/N=C/c1ccc(-c2cccnc2)o1.O/N=C\c1ccc(-c2cccnc2)o1` yielded an IC50 of more than 400 µM.

The compound `c1cncc(-c2nccs2)c1` showed a Ki in [7] of 3.2 µM. In other words, the single-digit micromolar range.

In turn, `c1cncc(-c2ccc(CNCc3ccc(-c4cccnc4)s3)s2)c1` showed an IC50 in data set [10] of more than 400 µM.

Consider `Cc1cn(-c2cccnc2)cn1`, for which the IC50 in data set [2] was more than 300 µM; in data set [3] it was 297 µM; in data set [4] it was more than 300 µM; in data set [5] it was 57.9 µM; in data set [6], more than 300 µM; in [11] it was 1 µM. The compound also displayed a Ki in data set [7] of 0.17 µM.

`N=Cc1ccc(-c2cccnc2)s1.N=Cc1ccc(-c2cccnc2)s1.NCc1ccc(-c2cccnc2)s1`: the IC50 in [2] came out at 256 µM; in data set [3], 197 µM; in data set [5], 77.5 µM; in data set [10], 77.5 µM; in [11], 3.7 µM.

Take `NCc1ccc(-c2cccnc2)cc1`: the Ki in [7] is 1.4 µM.

Turning to `c1cncc(-c2cccs2)c1`, the IC50 was 70.8 µM in [2]; more than 400 µM in [3]; 178 µM in data set [4]; 4.1 µM in data set [5]; 99.2 µM in data set [6].

As for `NCc1ccc(-c2cccnc2)o1`, the selectivity ratio in data set [1] was 4.1.

In the case of `CN1CCC[C@H]1c1cccnc1` [NICOTINE], affinity in data set [7] was put at a Ki of 4.4 µM.

In data set [7], `c1ccc(-c2cccnc2)nc1` [[2,3'']Bipyridinyl] showed a Ki of 7.7 µM.

In data set [7], `CNCC#Cc1cccnc1` yielded an inhibition constant Ki of 0.89 µM.

In data set [7], `COc1ccc(-c2sccc2C)cn1` returned a Ki not below 67 µM.

Take `Cc1cscc1-c1ccc(F)nc1`: in data set [6], the IC50 was more than 400 µM.

For the compound `Clc1ccc(-c2cccnc2)cn1`, in [7], the Ki stood at 6.3 µM.

On to `Cc1ccsc1-c1cncc(Br)c1`, for which the affinity in [7], expressed as Ki, was 1.5 µM.

For `Cc1ccc(-c2cccnc2)nc1`, in [7], affinity was put at a Ki of 2.7 µM.

With `O=Cc1ccc(-c2cccnc2)o1`, the Ki in data set [7] is not below 67 µM.

`c1cncc(-n2cnnn2)c1` displayed an inhibition constant (Ki) in data set [7] not below 67 µM.

With `Cc1cccc(-c2cccnc2)n1`, the Ki in data set [7] came to 9.8 µM.

On to `O/N=C\c1ccc(-c2cccnc2)o1`, for which the selectivity ratio in [1] is more than 95; in data set [12] it was more than 95; in [8] it was 94; in [9], 66. Besides, the IC50 in data set [2] is 128 µM; in data set [3] it was more than 400 µM; in data set [4] it was 279 µM; in data set [5] it was more than 400 µM; in [6] it was 398 µM; in data set [10], more than 400 µM. The same compound came in with an IC50 in data set [11] of 4.2 µM. In data set [7], the affinity corresponds to a Ki of 13.7 µM.

`O=[N+]([O-])c1ccc(-c2cccnc2)s1`: the affinity in [7] corresponds to a Ki of 19.7 µM.

The compound `Cc1cccnc1-c1cccnc1` came in with a Ki in data set [7] of 43.7 µM.

`c1cncc(-c2cncnc2)c1` registered a Ki in data set [7] of 27.4 µM. This Ki is about 1.6-fold lower than that of the compound before.
